Results reported in US20090232912A1, “Method For Preparing Extract For The Prevention and Treatment Of Hyperlipidemia and Obesity From the Extract of Aster Spathulifolius Aerial Part and Composition Containing The Same” (priority 2005, published 2009).
Marks after values point to notes of the source that are not given here.

Legend:
Assay type in all cases: in vivo, rat (Sprague-Dawley male)
rats fed high fat diet [1] = assay: Experiment 4: body weight, food intake and food efficiency ratio of rats fed high fat diet; conditions: Exp.4 HFD rats; orally once a day 6 weeks; AE-B 125, AE-C 100, AE-1 10, ABP 1.5 mg/kg
Description: (§1) The rats, aged 6 week-old and weighing 170˜180 g Sprague-Dawley male, were purchased from Samtaco (Seoul, Korea). After the animals were given a standard laboratory diet for 1 week, they were divided two groups each group. Rats were fed two diets: the normal diet (ND, n=10) group and high fat diet (HFD, n=50) group. 6 weeks later, HFD group were subdivided five groups. They were administrated with extract of Aster spathulifolius aerial part orally once a day for 6 weeks.
HFD group: High fat diet+0.5% carboxymethycelluose
HFD+AE-B group: High fat diet+AE-B 125 mg/kg
HFD+AE-C group: High fat diet+AE-C 100 mg/kg
HFD+AE-1 group: High fat diet+AE-110 mg/kg
HFD+ABP group: High fat diet+ABP 1.5 mg/kg
(§2) The experimental diets contain either a normal fat (11.7% of calories as fat, AIN-76A diet # 100000, Dyets Inc., Bethlehem, Pa., USA) or a high fat (40% of calories as fat, AIN-76A high fat diet # 100496, Dyets Inc., Bethlehem, Pa., USA) (Table 1). During the test period, food intake and body weight were measured twice a week. Food efficiency ratio was calculated by dividing the increase in body weight during the test period by the food intake during the period.

rats fed high fat diet [2] = assay: Experiment 4: white adipocyte size and adipose tissue weights; conditions: Exp.4 HFD rats; after 12 weeks; AE-B 125, AE-C 100, AE-1 10, ABP 1.5 mg/kg once a day 6 weeks
Description: as §1
A is ND Group, B is HFD-C group, C is HFD+AE-B group, D is HFD+AE-C group, E is HFD+AE-1 group and F is HFD+ABP group.
(§3) After 12 weeks, rats were anesthetized with ether and sacrificed after 14 h of fasting. Blood samples were collected from hepatic vein and centrifuged (3,000 rpm for 10 min at 4° C.). Serum was frozen at −70° C. for the biochemical analysis. The epididymal and abdominal fat pad were immediately weighed, measured size of adipocyte using microscope.

rats fed high fat diet [3] = assay: Experiment 4: hepatic lipids (TG, TC, FFA); conditions: Exp.4 HFD rats; AE-B 125, AE-C 100, AE-1 10, ABP 1.5 mg/kg once a day 6 weeks
Description: as §1
(§4) Hepatic lipid was extracted by the method devised by Folch et al. and its content was measured by the same technique used for the serum analysis. […] There was no significant difference in hepatic free fatty acid (FFA) level.

rats fed high fat diet [4] = assay: Experiment 4: serum leptin, insulin and glucose; conditions: Exp.4 HFD rats; AE-B 125, AE-C 100, AE-1 10, ABP 1.5 mg/kg once a day 6 weeks
Description: as §1, §3
(§5) Serum leptin and insulin was measured by RIA using Linco leptin assay kit (Linco research Immunoassay, St. Louis, Mo.) and insulin standards (Linco research Immunoassay, St. Louis, Mo.) respectively (FIG. 5).

rats fed high fat diet [5] = assay: Experiment 5: food intake, change of body weights and food efficiency ratio; conditions: Exp.5 HFD rats
Experimental: as §2
as §1, with “n=8)” for “n=10)”, “n=88)” for “n=50)”, “11 groups (n=8).” for “five groups.”, “weeks. […]” for “weeks.”
AE-1 20 group: High fat diet+AE-1 (Germacrone) 20 mg/kg
AE-1 10 group: High fat diet+AE-1(Germacrone) 10 mg/kg
AE-1 5 group: High fat diet+AE-1 (Germacrone) 5 mg/kg […]
Experimental diet is same table 1 of experiment 4. Food intake, change of body weights and food efficiency ratio were shown Table 6.

rats fed high fat diet [6] = assay: Experiment 5: adipocyte (fat) weight; conditions: Exp.5 HFD rats
Experimental: as §3
as §1, with “n=8)” for “n=10)”, “n=88)” for “n=50)”, “11 groups (n=8).” for “five groups.”
Adipocyte weight were determined method of experiment 5. EASA treated groups reduced white adipocyte versus the HFD group, in a dose-dependent manner.

rats fed high fat diet [7] = assay: Experiment 5: levels of lipid in serum; conditions: Exp.5 HFD rats
Experimental: Serum triglyceride (TG), total cholesterol (TC), and HDL-cholesterol (HDL-C) levels were determined using the calorimetric method with commercial kits (Asan Diagnostics, Seoul, Korea). There was no significant difference in serum TG or HDL-C levels, although EASA-treated groups tended to be lower than the HFD-C group (FIG. 4).
as §1, with “n=8)” for “n=10)”, “n=88)” for “n=50)”, “11 groups (n=8).” for “five groups.”
In levels of TG, the HFD groups had similar values to the ND group. EASA treated groups reduced the levels of TG versus the HFD group. […] EASA treated groups reduced the levels of TC versus the HFD and ND group.

rats fed high fat diet [8] = assay: Experiment 5: levels of lipid in liver; conditions: Exp.5 HFD rats
Experimental: as §4
as §1, with “n=8)” for “n=10)”, “n=88)” for “n=50)”, “11 groups (n=8).” for “five groups.”

rats fed high fat diet [9] = assay: Experiment 5: serum levels of leptin and insulin; conditions: Exp.5 HFD rats
Experimental: as §5
as §1, with “n=8)” for “n=10)”, “n=88)” for “n=50)”, “11 groups (n=8).” for “five groups.”
Serum leptin and insulin level was measured in the same manner as in Test Example 4. Leptin is a hormone secreted from the adipocyte, in proportion to body fat mass. Leptin and insulin are deeply related with energy homeostasis. Increased leptin induces hyperinsulinemia, which in turn directly stimulates the leptin mRNA in the adipocyte.

[10] = AE-1 5 mg/kg orally once a day 6 weeks
[11] = AE-1 10 mg/kg orally once a day 6 weeks
[12] = AE-1 20 mg/kg orally once a day 6 weeks

CC[C@H](/C=C/[C@@H](C)[C@H]1CC[C@H]2C3=CC[C@H]4C[C@@H](O[C@@H]5O[C@H](CO)[C@@H](O)[C@H](O)[C@H]5O)CC[C@]4(C)[C@H]3CC[C@]12C)C(C)C [ABP, α-Spinasterol 3-O-β-D-glucopyranoide]
12 wk B.W (rats fed high fat diet [1]): 509.20 ± 39.54^ab g | FER (food efficiency ratio) (rats fed high fat diet [1]): 0.139 ± 0.018^b | Food intake (rats fed high fat diet [1]): 26.00 ± 3.64 g/day | Abdominal fat pad (rats fed high fat diet [2]): 14.98 ± 3.19^b g | Epididymal fat pad (rats fed high fat diet [2]): 11.55 ± 1.96^ab g | FFA (hepatic) (rats fed high fat diet [3]): 1.018 ± 0.25 meq/l | TC (hepatic) (rats fed high fat diet [3]): 17.59 ± 2.79^b mg/g liver | TG (hepatic) (rats fed high fat diet [3]): 2.65 ± 0.48^b mg/g liver | Insulin (serum) (rats fed high fat diet [4]): 1.21 ± 0.60^bc ng/ml | Leptin (serum) (rats fed high fat diet [4]): 3.98 ± 0.95^b ng/ml

CC(C)=C1C/C=C(\C)CC/C=C(\C)CC1=O [AE-1, Germacron]
12 wk B.W (rats fed high fat diet [1]): 504.40 ± 28.37^b g | FER (food efficiency ratio) (rats fed high fat diet [1]): 0.137 ± 0.013^b | Food intake (rats fed high fat diet [1]): 25.82 ± 2.91 g/day | Abdominal fat pad (rats fed high fat diet [2]): 14.18 ± 4.67^b g | Epididymal fat pad (rats fed high fat diet [2]): 10.21 ± 2.69^b g | FFA (hepatic) (rats fed high fat diet [3]): 0.869 ± 0.25 meq/l | TC (hepatic) (rats fed high fat diet [3]): 13.74 ± 0.92^c mg/g liver | TG (hepatic) (rats fed high fat diet [3]): 2.20 ± 0.52^b mg/g liver | Glucose (serum) (rats fed high fat diet [4]): 206.60 ± 42.07^ab mg/dl | Insulin (serum) (rats fed high fat diet [4]): 1.00 ± 0.27^bc ng/ml | Leptin (serum) (rats fed high fat diet [4]): 3.88 ± 1.01^b ng/ml | 12 wk B.W (rats fed high fat diet [5]; [10]): 501.71 ± 46.64^b g | FER (food efficiency ratio) (rats fed high fat diet [5]; [10]): 0.196 ± 0.029^b | Food intake (rats fed high fat diet [5]; [10]): 17.89 ± 2.97 g/day | 12 wk B.W (rats fed high fat diet [5]; [11]): 494.75 ± 45.52^b g | FER (food efficiency ratio) (rats fed high fat diet [5]; [11]): 0.189 ± 0.026^b | Food intake (rats fed high fat diet [5]; [11]): 18.24 ± 2.93 g/day | 12 wk B.W (rats fed high fat diet [5]; [12]): 490.75 ± 18.27^b g | FER (food efficiency ratio) (rats fed high fat diet [5]; [12]): 0.194 ± 0.010^b | Food intake (rats fed high fat diet [5]; [12]): 17.48 ± 2.83 g/day | Abdominal fat (rats fed high fat diet [6]; [10]): 14.50 ± 4.43^ab g | Epididymal fat (rats fed high fat diet [6]; [10]): 11.15 ± 2.39^ab g | Total fat (rats fed high fat diet [6]; [10]): 31.09 ± 8.02^b g | Visceral fat (rats fed high fat diet [6]; [10]): 5.45 ± 2.13^b g | Abdominal fat (rats fed high fat diet [6]; [11]): 14.60 ± 2.20^ab g | Epididymal fat (rats fed high fat diet [6]; [11]): 9.97 ± 2.85^b g | Total fat (rats fed high fat diet [6]; [11]): 29.55 ± 5.25^b g | Visceral fat (rats fed high fat diet [6]; [11]): 4.98 ± 1.53^b g | Abdominal fat (rats fed high fat diet [6]; [12]): 13.76 ± 3.11^ab g | Epididymal fat (rats fed high fat diet [6]; [12]): 11.05 ± 1.44^b g | Total fat (rats fed high fat diet [6]; [12]): 29.49 ± 5.26^b g | Visceral fat (rats fed high fat diet [6]; [12]): 4.68 ± 1.78^b g | HDL-cholesterol (serum) (rats fed high fat diet [7]; [10]): 48.39 ± 9.65 mg/dL | Total cholesterol (serum) (rats fed high fat diet [7]; [10]): 51.93 ± 10.29^c mg/dl | Triglyceride (serum) (rats fed high fat diet [7]; [10]): 91.51 ± 20.50^ab mg/dl | HDL-cholesterol (serum) (rats fed high fat diet [7]; [11]): 42.41 ± 8.41 mg/dL | Total cholesterol (serum) (rats fed high fat diet [7]; [11]): 62.56 ± 8.33^c mg/dl | Triglyceride (serum) (rats fed high fat diet [7]; [11]): 86.94 ± 21.93^ab mg/dl | HDL-cholesterol (serum) (rats fed high fat diet [7]; [12]): 55.80 ± 19.57 mg/dL | Total cholesterol (serum) (rats fed high fat diet [7]; [12]): 51.91 ± 14.32^c mg/dl | Triglyceride (serum) (rats fed high fat diet [7]; [12]): 91.12 ± 24.03^ab mg/dl | FFA (liver) (rats fed high fat diet [8]; [10]): 0.868 ± 0.28 meq/l | TC (liver) (rats fed high fat diet [8]; [10]): 12.81 ± 1.20^bcd mg/g liver | TG (liver) (rats fed high fat diet [8]; [10]): 1.95 ± 0.46^b mg/g liver | FFA (liver) (rats fed high fat diet [8]; [11]): 0.831 ± 0.30 meq/l | TC (liver) (rats fed high fat diet [8]; [11]): 12.84 ± 1.71^bcd mg/g liver | TG (liver) (rats fed high fat diet [8]; [11]): 1.81 ± 1.32^b mg/g liver | FFA (liver) (rats fed high fat diet [8]; [12]): 0.775 ± 0.25 meq/l | TC (liver) (rats fed high fat diet [8]; [12]): 12.14 ± 1.76^cd mg/g liver | TG (liver) (rats fed high fat diet [8]; [12]): 1.88 ± 0.55^b mg/g liver | Insulin (serum) (rats fed high fat diet [9]; [10]): 1.35 ± 0.28^bc ng/ml | Leptin (serum) (rats fed high fat diet [9]; [10]): 7.63 ± 1.69^b ng/ml | Insulin (serum) (rats fed high fat diet [9]; [11]): 1.06 ± 0.40^bc ng/ml | Leptin (serum) (rats fed high fat diet [9]; [11]): 6.55 ± 6.28^bc ng/ml | Insulin (serum) (rats fed high fat diet [9]; [12]): 0.98 ± 0.21^b ng/ml | Leptin (serum) (rats fed high fat diet [9]; [12]): 6.70 ± 2.58^b ng/ml

CC(C)CC(N(C)C)C1(c2ccc(Cl)cc2)CCC1 (stereo not drawn) [Sibutramine, reference compound]
12 wk B.W (rats fed high fat diet [5]; Sibutramine 7.5 mg/kg, 6 weeks): 462.00 ± 44.93^bc g | FER (food efficiency ratio) (rats fed high fat diet [5]; Sibutramine 7.5 mg/kg, 6 weeks): 0.183 ± 0.028^b | Food intake (rats fed high fat diet [5]; Sibutramine 7.5 mg/kg, 6 weeks): 16.70 ± 2.68 g/day | Abdominal fat (rats fed high fat diet [6]; Sibutramine 7.5 mg/kg, 6 weeks): 11.44 ± 3.16^b g | Epididymal fat (rats fed high fat diet [6]; Sibutramine 7.5 mg/kg, 6 weeks): 8.75 ± 2.57^bc g | Total fat (rats fed high fat diet [6]; Sibutramine 7.5 mg/kg, 6 weeks): 25.30 ± 5.77^b g | Visceral fat (rats fed high fat diet [6]; Sibutramine 7.5 mg/kg, 6 weeks): 5.11 ± 0.89^b g | HDL-cholesterol (serum) (rats fed high fat diet [7]; Sibutramine 7.5 mg/kg, 6 weeks): 46.62 ± 12.21 mg/dL | Total cholesterol (serum) (rats fed high fat diet [7]; Sibutramine 7.5 mg/kg, 6 weeks): 59.79 ± 19.99^c mg/dl | Triglyceride (serum) (rats fed high fat diet [7]; Sibutramine 7.5 mg/kg, 6 weeks): 82.62 ± 26.39^ab mg/dl | FFA (liver) (rats fed high fat diet [8]; Sibutramine 7.5 mg/kg, 6 weeks): 0.871 ± 0.68 meq/l | TC (liver) (rats fed high fat diet [8]; Sibutramine 7.5 mg/kg, 6 weeks): 13.52 ± 2.15^bc mg/g liver | TG (liver) (rats fed high fat diet [8]; Sibutramine 7.5 mg/kg, 6 weeks): 1.84 ± 0.21^b mg/g liver | Insulin (serum) (rats fed high fat diet [9]; Sibutramine 7.5 mg/kg, 6 weeks): 1.02 ± 0.33^bc ng/ml | Leptin (serum) (rats fed high fat diet [9]; Sibutramine 7.5 mg/kg, 6 weeks): 6.27 ± 1.89^bc ng/ml
